From patent US5475029A, “Farnesyl compounds as cholesterol lowering agents” (The Board of Trustees of the Leland Stanford Junior …, priority 1993, dated 1995) come the findings set out here.

What all share (type): cell-based
One assay deals with HMGal. Description: HMGal activity (in vitro β-galactosidase specific activity) in CHO-HMGal cells. Here is the method:
Cell Culture--All cells were grown as monolayers at 37° C. in an atmosphere of 5% CO2. CHO-HMGal cells were grown in minimal essential medium (MEM) supplemented with 0.25 mg/ml active geneticin and either 5% fetal calf serum (FCS) or 5% lipid-poor fetal calf serum (LPS).
Stock Solutions--Stock solutions of farnesyl acetate, ethyl farnesyl ether, and the mixture of 25-hydroxycholesterol with cholesterol were all made in 100% ethanol at 100 times the final concentration. In all experiments in which these compounds were used, there is a final concentration of 1% ethanol in the medium. For control, cells grown with "no additives" or "mevalonate" 100% ethanol was added to the medium to bring the final concentration of ethanol to 1%. The mevalonate stock solution was prepared at a concentration of 2M in 20 mM potassium phosphate buffer (pH 4.5).
β-galactosidase Specific Activity--In vitro β-galactosidase activity was measured using the substrate, o-nitrophenyl-β-D-galactopyranoside. Specific activities were calculated using protein concentration values.
Farnesyl acetate and ethyl farnesyl ether stimulate a reduction in HMGal activity--In an attempt to identify tile non-sterol metabolite(s) that triggers the down regulation of HMG-CoA reductase, five commercially available isoprenoid compounds were tested for their effects on HMGal activity in CHO-HMGal cells. Each of tile compounds tested closely resembled one of tile naturally occurring isoprenoid pyrophosphates, except that the pyrophosphate group had been replaced by either a hydroxyl or an […] group. The compounds tested included: 3-methyl-2-buten-1-ol, the alcohol of the five carbon isoprenoid-dimethylallyl pyrophosphate (a naturally occurring isomer of isopentenyl pyrophosphate); geraniol and geranyl acetate, the alcohol and the […] of the ten carbon isoprenoid-geranyl pyrophosphate; and farnesol and farnesyl acetate, the alcohol and the […] of the fifteen carbon isoprenoid-farnesyl pyrophosphate.
To confirm that the reduction in HMGal activity was the result of a regulatory function specifically targeting the membrane domain of HMGal, the effects of farnesyl acetate on β-galactosidase activity were measured in vitro for both CHO-HMGal cells and CHO-Gal cells. The CHO-Gal cells had been stably transfected with a construct identical to the HMGal construct (using the same vector, promoter, and 5' and 3' flanking regions) except that the construct in the CHO-Gal cells codes for a soluble β-galactosidase protein instead of the HMGal fusion protein with the membrane domain of HMG-CoA reductase. In this experiment, the CHO-Gal cells served to control for any artifacts farnesyl acetate might cause in the β-galactosidase assay or any nonspecific effects farnesyl acetate might have on the rates of protein synthesis or degradation.

A further assay concerns HMG-CoA reductase. Description: HMG-CoA reductase synthesis rate ([35S]methionine incorporation). As to conditions: 10 μg/ml. Here is the method:
Measurement of HMGal and HMG-CoA Reductase Synthesis Rates Cells plated into 60×15 mm dishes were grown in 5% LPS MEM with 0.25 mg/ml active geneticin for 24 hours. These cells were washed with PBS and grown for 24 hours in 5% LPS MEM supplemented with 0.25 mg/ml active geneticin, 10 μM compactin and 0.1 mM mevalonate. After 24 hours, the medium was removed, the cells were washed with PBS and the medium was replaced with methionine-free MEM supplemented with 5% LPS, 250 μg/ml of active geneticin, 10 μM compactin, and 0.1 mM mevalonate. In addition, 20 mM mevalonate or 10 μg/ml farnesyl acetate was included in those plates previously treated with these compounds. […] Cells were washed, lysed and the HMGal and HMG-CoA reductase proteins were immunoprecipitated, subjected to SDS-PAGE and quantified. […]
Farnesyl compounds reduce translation and stimulate degradation of HMG-CoA reductase and HMGal A reduction in HMGal specific activity triggered by the farnesyl compounds could have been the result of a decrease in HMGal synthesis, an increase in HMGal degradation, or a combination of changes in both the synthesis and degradation rates. In order to test whether the farnesyl compounds impact synthesis, the rates of HMGal, HMG-CoA reductase, and total cellular protein synthesis were measured by [^35 S]methionine incorporation in the presence and absence of 10 μg/ml farnesyl acetate.

A further assay has as its system cholesterol biosynthesis. Briefly: [3H]acetate incorporation into cholesterol in CHO-HMGal cells. On the procedure:
(§1) Thin Layer Chromatography--TLC was performed using Analtech 250 μm silica gel G plates with a hexanes/diethyl ether (1:1) solvent system. Lipid standards were visualized by iodine staining. Bands were scraped from the plate and their radioactivity was measured.
(§2) Quantification of Radioactivity--Samples were suspended in 4 ml of scintillation fluid (Cytoscint from ICN). The radioactivity of the samples was measured using a Beckman LS-7500 scintillation counter.
Subsequently, the cells were labeled for 1,2, and 4 hours with [^3 H]acetate and harvested. The non-saponifiable lipid fraction from each cell type was extracted and separated by TLC. The radioactivity that co-migrated with cholesterol was measured and normalized for the amount of cellular protein.
Farnesyl acetate and ethyl farnesyl ether were only present during the labeling period so that any reduction in incorporation into cholesterol would be the result of inhibition and not a down regulation in HMG-CoA reductase.

Assay [1] concerns cholesterol biosynthetic pathway. Briefly: TLC distribution of [3H]acetate-derived non-saponifiable lipids (site of metabolic block). Further details: radioactivity in the cell-derived fraction co-migrating with lanosterol / radioactivity in the cell-derived fraction co-migrating with squalene / radioactivity in the cell-derived fraction co-migrating with cholesterol / remaining radioactivity in the cell-derived fraction scattered throughout the rest of the TLC lane: concentration or dose not given beside the values. On the procedure:
Lipid Saponification and Extraction Procedure Saponification and extraction of lipids from cell and media samples was performed as previously described in Bradfute, et al. (1992) J.B.C. 267:18308-18314.
as §1, §2
To determine tile site of tile metabolic block caused by farnesyl acetate and ethyl farnesyl ether, the non-saponifiable lipids from cells grown in the presence of the farnesyl compounds were examined for the accumulation of intermediates in the cholesterol biosynthetic pathway. The cells were only labeled for 1 hour and only treated with the farnesyl compounds during the labeling period; so that any intermediates which accumulated would be as a result of the inhibitory effects of the farnesol compounds and not subsequent regulatory effects on HMG-CoA reductase. CHO-HMGal cells were incubated with [^3 H]acetate and either farnesyl acetate, ethyl farnesyl ether, or no additive. The non-saponifiable lipids were isolated from both the cell, and the medium and separated by TLC.

[2] abbreviates: 1 hour labeling with [3H]acetate, compound only during labeling.

Each structure is given as a SMILES string.

In the case of `CC(=O)OCC=C(C)CCC=C(C)CCC=C(C)C` [farnesyl acetate], the “reduction of HMGal activity” value with HMGal (10 μg/ml, 24 hour treatment) came out at 70%. In addition, the “reduction of HMGal activity” value in the assay on HMGal (20 μg/ml) is recorded as 80%. Further, in the assay with HMGal (five isoprenoid compounds tested), the “reduction in HMGal activity at concentrations below the levels toxic to the cells” value was “stimulated a reduction in HMGal activity”. In the assay on HMG-CoA reductase, the “reduction in the rate of HMG-CoA reductase synthesis” value was 60%. In the assay with cholesterol biosynthesis (24 hours pretreatment, then labeled 1, 2 and 4 hours, CHO-HMGal cells), the “reduction in [3H]acetate incorporation into cholesterol” value stood at 80%. Besides, the “reduction in [3H]acetate incorporation into cholesterol” value with cholesterol biosynthesis (compound present only during the labeling period, no pretreatment) was determined as 89%. Further, in assay [1] (setting [2]), the “radioactivity in the cell-derived fraction co-migrating with cholesterol” value amounted to 4%, the “radioactivity in the cell-derived fraction co-migrating with lanosterol” value worked out at 74%, the “radioactivity in the cell-derived fraction co-migrating with squalene” value was 9% and the “remaining radioactivity in the cell-derived fraction scattered throughout the rest of the TLC lane” value was 13%. The “total non-saponifiable radioactivity found in the medium” value in assay [1] (untreated 6%) came to 12%. Also, the “total non-saponifiable radioactivity found in the cells” value in assay [1] (untreated 94%) is given as 88%. Further, the “increase in media-derived material co-migrating with farnesol” value in assay [1] (versus untreated sample) was approximately 3 fold.
